Data as given in patent publication US20220151236A1, “NOVEL OXADIAZOLE COMPOUNDS FOR CONTROLLING OR PREVENTING PHYTOPATHOGENIC FUNGI” (PI INDUSTRIES LTD., priority 2019, published 2022).

Each compound was assayed on Pyricularia Oryzae (assay: microbe, parasite or virus in culture). Conditions: 168 h, read-out: control (radial growth compared to the untreated check).
Assay type: cell-based

Compound	inhibition of growth at 300 ppm [%]
CS(=O)(Cc1cn2ccc(-c3noc(C(F)(F)F)n3)cc2n1)=NC(=O)c1ccccc1C(F)(F)F (centres unmarked) [Compound 161, N-(methyl(oxo)((7-(5-(trifluoromethyl)-1,2,4-oxadiazol-3-yl)imidazo[1,2-a]pyridin-2-yl)methyl)-λ^6-sulfanylidene)-2-(trifluoromethyl)benzamide]	≥ 70
CS(=O)(=NC(=O)Cc1cn2cc(-c3noc(C(F)(F)F)n3)ccc2n1)c1cc(Cl)cc(Cl)c1 (centres unmarked) [Compound 140, N-((3,5-dichlorophenyl)(methyl)(oxo)-λ^6-sulfaneylidene)-2-(6-(5-(trifluoromethyl)-1,2,4-oxadiazol-3-yl)imidazo[1,2-a]pyridin-2-yl)acetamide]	≥ 70
COCCS(=O)(=NC(=O)Cc1cn2cc(-c3noc(C(F)(F)F)n3)ccc2n1)c1ccc(Cl)cc1 (centres unmarked) [Compound 136, N-((4-chlorophenyl)(2-methoxyethyl)(oxo)-λ^6-sulfaneylidene)-2-(6-(5-(trifluoromethyl)-1,2,4-oxadiazol-3-yl)imidazo[1,2-a]pyridin-2-yl)acetamide]	≥ 70

The compounds below were run on Alternaria solani (assay: Alternaria solani (Early Blight of Tomato/Potato): radial mycelial growth on potato dextrose agar). Conditions: 168 h, potato dextrose agar, 25° C., 60% relative humidity, seven days, read-out: control (radial growth compared to the untreated check).
Assay type: cell-based
Procedure: Compounds were dissolved in 0.3% dimethyl sulfoxide and then added to potato dextrose agar medium just prior to dispensing it into petri dishes. 5 mL medium with the compound in the desired concentration was dispensed into 60 mm sterile petri-plates. After solidification each plate was seeded with a 5 mm size mycelial disc taken from the periphery of an actively growing virulent culture plate. Plates were incubated in growth chambers at 25° C. temperature and 60% relative humidity for seven days and then the radial growth was measured and compared to that of the untreated control. Compounds 2 85 89 92 94 108 113 114 131 138 142 143

Compound	inhibition of growth at 300 ppm [%]
Cc1ccccc1S(C)(=O)=NC(=O)Cc1cn2cc(-c3noc(C(F)(F)F)n3)ccc2n1 (centres unmarked) [Compound 148, N-(methyl(oxo)(o-tolyl)-λ^6-sulfaneylidene)-2-(6-(5-(trifluoromethyl)-1,2,4-oxadiazol-3-yl)imidazo[1,2-a]pyridin-2-yl)acetamide]	≥ 70
CS(=O)(=NC(=O)Cc1cn2cc(-c3noc(C(F)(F)F)n3)ccc2n1)c1cccc(Cl)c1 (centres unmarked) [Compound 149, N-((3-chlorophenyl)(methyl)(oxo)-λ^6-sulfaneylidene)-2-(6-(5-(trifluoromethyl)-1,2,4-oxadiazol-3-yl)imidazo[1,2-a]pyridin-2-yl)acetamide]	≥ 70
FC(F)(F)c1nc(-c2ccc3nc(CSCc4ccccc4)cn3c2)no1 [Compound 108, 3-(2-((benzylthio)methyl)imidazo[1,2-a]pyridin-6-yl)-5-(trifluoromethyl)-1,2,4-oxadiazole]	≥ 70
O=C(NCc1cn2cc(-c3noc(C(F)(F)F)n3)ccc2n1)c1ccc(OC(F)(F)F)cc1 [Compound 89, 4-(trifluoromethoxy)-N-((6-(5-(trifluoromethyl)-1,2,4-oxadiazol-3-yl)imidazo[1,2-a]pyridin-2-yl)methyl)benzamide]	≥ 70
CS(=O)(=NC(=O)Cc1cn2cc(-c3noc(C(F)(F)F)n3)ccc2n1)c1ccc(Cl)c(Cl)c1 (centres unmarked) [Compound 143, N-((3,4-dichlorophenyl)(methyl)(oxo)-λ^6-sulfaneylidene)-2-(6-(5-(trifluoromethyl)-1,2,4-oxadiazol-3-yl)imidazo[1,2-a]pyridin-2-yl)acetamide]	≥ 70
O=C(Cc1ccccc1)NCc1cn2cc(-c3noc(C(F)(F)F)n3)ccc2n1 [Compound 94, 2-phenyl-N-((6-(5-(trifluoromethyl)-1,2,4-oxadiazol-3-yl)imidazo[1,2-a]pyridin-2-yl)methyl)acetamide]	≥ 70
O=C(NCc1cn2cc(-c3noc(C(F)(F)F)n3)ccc2n1)c1cccc(Cl)c1 [Compound 85, 3-chloro-N-((6-(5-(trifluoromethyl)-1,2,4-oxadiazol-3-yl)imidazo[1,2-a]pyridin-2-yl)methyl)benzamide]	≥ 70
CS(=O)(=NC(=O)Cc1cn2cc(-c3noc(C(F)(F)F)n3)ccc2n1)c1cccc(F)c1 (centres unmarked) [Compound 131, N-((3-fluorophenyl)(methyl)(oxo)-λ^6-sulfaneylidene)-2-(6-(5-(trifluoromethyl)-1,2,4-oxadiazol-3-yl)imidazo[1,2-a]pyridin-2-yl)acetamide]	≥ 70
COc1ccc(NC(=O)c2cn3ccc(-c4noc(C(F)(F)F)n4)cc3n2)cc1 [Compound 2, N-(4-methoxyphenyl)-7-(5-(trifluoromethyl)-1,2,4-oxadiazol-3-yl)imidazo[1,2-a]pyridine-2-carboxamide]	≥ 70

What follows are compounds tested on Phakopsora pachyrhizi (assay: Phakopsora pachyrhizi Test on Soybean (preventive activity, greenhouse)). Conditions: preventive spray on young Soybean plants, inoculated one day after treatment, rated 3, 7, 10 and 15 days after application, read-out: Efficacy (% control), disease severity compared to the untreated check.
Assay type: in vivo
Procedure: Compounds were dissolved in 2% dimethyl sulfoxide/acetone and then mixed with water containing an emulsifier to a calibrated spray volume of 50 mL. This 50 mL spray solution was poured into spray bottles for further applications. To test the preventive activity of compounds, healthy young Soybean plants raised in the greenhouse were sprayed with the active compound preparation at the stated application rates inside the spray cabinets using hollow cone nozzles. One day after treatment, the plants were inoculated with a spore suspension containing 2×10^5 Phakopsora pachyrhizi conidia. The inoculated plants were then kept in a greenhouse chamber at 22-24° C. temperature and 80-90% relative humidity for disease expression. A visual assessment of the compound's performance was carried out by rating the disease severity (0-100% scale) on treated plants 3, 7, 10 and 15 days after application. Efficacy (% control) of the compounds was calculated by comparing the disease rating in the treatment with the one of the untreated control. The sprayed plants were also assessed for plant compatibility by recording symptoms like necrosis, chlorosis and stunting.

Compound	pest or weed control at 500 ppm [%]
O=C(NCc1cn2cc(-c3noc(C(F)(F)F)n3)ccc2n1)c1ccc(OC(F)(F)F)cc1 [Compound 89, 4-(trifluoromethoxy)-N-((6-(5-(trifluoromethyl)-1,2,4-oxadiazol-3-yl)imidazo[1,2-a]pyridin-2-yl)methyl)benzamide]	≥ 70
O=C(Cc1ccccc1)NCc1cn2cc(-c3noc(C(F)(F)F)n3)ccc2n1 [Compound 94, 2-phenyl-N-((6-(5-(trifluoromethyl)-1,2,4-oxadiazol-3-yl)imidazo[1,2-a]pyridin-2-yl)methyl)acetamide]	≥ 70
O=C(NCc1cn2cc(-c3noc(C(F)(F)F)n3)ccc2n1)c1cccc(Cl)c1 [Compound 85, 3-chloro-N-((6-(5-(trifluoromethyl)-1,2,4-oxadiazol-3-yl)imidazo[1,2-a]pyridin-2-yl)methyl)benzamide]	≥ 70
O=C(NCc1cccc(F)c1)c1cn2cc(-c3noc(C(F)(F)F)n3)ccc2n1 [Compound 31, N-(3-fluorobenzyl)-6-(5-(trifluoromethyl)-1,2,4-oxadiazol-3-yl)imidazo[1,2-a]pyridine-2-carboxamide]	≥ 70
O=C(NCC1CC1)c1cn2cc(-c3noc(C(F)(F)F)n3)ccc2n1 [Compound 70, N-(cyclopropylmethyl)-6-(5-(trifluoromethyl)-1,2,4-oxadiazol-3-yl)imidazo[1,2-a]pyridine-2-carboxamide]	≥ 70
FC(F)(F)c1nc(-c2ccn3cc(CSc4ccc(Cl)cc4)nc3c2)no1 [Compound 47, 3-(2-(((4-chlorophenyl)thio)methyl)imidazo[1,2-a]pyridin-7-yl)-5-(trifluoromethyl)-1,2,4-oxadiazole]	≥ 70
O=C(NCc1cn2cc(-c3noc(C(F)(F)F)n3)ccc2n1)c1cccc(F)c1 [Compound 93, 3-fluoro-N-((6-(5-(trifluoromethyl)-1,2,4-oxadiazol-3-yl)imidazo[1,2-a]pyridin-2-yl)methyl)benzamide]	≥ 70
O=C(NCc1ccc(Cl)cc1)c1cn2ccc(-c3noc(C(F)(F)F)n3)cc2n1 [Compound 38, N-(4-chlorobenzyl)-7-(5-(trifluoromethyl)-1,2,4-oxadiazol-3-yl)imidazo[1,2-a]pyridine-2-carboxamide]	≥ 70
COc1ccc(NC(=O)c2cn3ccc(-c4noc(C(F)(F)F)n4)cc3n2)cc1 [Compound 2, N-(4-methoxyphenyl)-7-(5-(trifluoromethyl)-1,2,4-oxadiazol-3-yl)imidazo[1,2-a]pyridine-2-carboxamide]	≥ 70
CC(C)CNC(=O)c1cn2ccc(-c3noc(C(F)(F)F)n3)cc2n1 [Compound 35, N-isobutyl-7-(5-(trifluoromethyl)-1,2,4-oxadiazol-3-yl)imidazo[1,2-a]pyridine-2-carboxamide]	≥ 70
COc1ccc(CS(=O)(=O)Cc2cn3cc(-c4noc(C(F)(F)F)n4)ccc3n2)cc1 [Compound 122, 3-(2-(((4-methoxybenzyl)sulfonyl)methyl)imidazo[1,2-a]pyridin-6-yl)-5-(trifluoromethyl)-1,2,4-oxadiazole]	≥ 70
O=C(Nc1ccc(F)cc1F)c1cn2ccc(-c3noc(C(F)(F)F)n3)cc2n1 [Compound 5, N-(2,4-difluorophenyl)-7-(5-(trifluoromethyl)-1,2,4-oxadiazol-3-yl)imidazo[1,2-a]pyridine-2-carboxamide]	≥ 70
CS(=O)(=NC(=O)Cc1cn2cc(-c3noc(C(F)(F)F)n3)ccc2n1)c1ccccc1F (centres unmarked) [Compound 130, N-((2-fluorophenyl)(methyl)(oxo)-λ^6-sulfaneylidene)-2-(6-(5-(trifluoromethyl)-1,2,4-oxadiazol-3-yl)imidazo[1,2-a]pyridin-2-yl)acetamide]	≥ 70
COCCNC(=O)c1cn2ccc(-c3noc(C(F)(F)F)n3)cc2n1 [Compound 34, N-(2-methoxyethyl)-7-(5-(trifluoromethyl)-1,2,4-oxadiazol-3-yl)imidazo[1,2-a]pyridine-2-carboxamide]	≥ 70
N=S(=O)(Cc1cn2ccc(-c3noc(C(F)(F)F)n3)cc2n1)c1ccccc1 (centres unmarked) [Compound 164, imino(phenyl)((7-(5-(trifluoromethyl)-1,2,4-oxadiazol-3-yl)imidazo[1,2-a]pyridin-2-yl)methyl)-λ^6-sulfanone]	≥ 70
CS(=O)(=NC(=O)Cc1cn2cc(-c3noc(C(F)(F)F)n3)ccc2n1)c1ccccc1 (centres unmarked) [Compound 129, N-(methyl(oxo)(phenyl)-λ^6-sulfanylidene)-2-(6-(5-(trifluoromethyl)-1,2,4-oxadiazol-3-yl)imidazo[1,2-a]pyridin-2-yl)acetamide]	≥ 70
FC(F)(F)c1nc(-c2ccc3nc(CSc4ccccc4)cn3c2)no1 [Compound 101, 3-(2-((phenylthio)methyl)imidazo[1,2-a]pyridin-6-yl)-5-(trifluoromethyl)-1,2,4-oxadiazole]	≥ 70
O=C(NCc1cccc(Cl)c1)c1cn2cc(-c3noc(C(F)(F)F)n3)ccc2n1 [Compound 75, N-(3-chlorobenzyl)-6-(5-(trifluoromethyl)-1,2,4-oxadiazol-3-yl)imidazo[1,2-a]pyridine-2-carboxamide]	≥ 70
CC(NC(=O)c1cn2cc(-c3noc(C(F)(F)F)n3)ccc2n1)c1ccccc1 (centres unmarked) [Compound 72, N-(1-phenylethyl)-6-(5-(trifluoromethyl)-1,2,4-oxadiazol-3-yl)imidazo[1,2-a]pyridine-2-carboxamide]	≥ 70
CCOC(=O)c1cn2cc(-c3noc(C(F)(F)F)n3)ccc2n1 [Compound 79, ethyl 6-(5-(trifluoromethyl)-1,2,4-oxadiazol-3-yl)imidazo[1,2-a]pyridine-2-carboxylate]	≥ 70
